≈ marks a conversion by molar mass, not a printed value. Calls of active or inactive are those of the source. The rule behind the calls is not given here.
Key:
[1] = Cmax in CD rat at 10 mg/kg, po by LC-MS/MS analysis; format: ADME, organism-based; parameters: dose 10 mg/kg, route oral; settings: in vivo
[2] = AUC (0 to infinity) in CD rat at 10 mg/kg, po by LC-MS/MS analysis; format: ADME, organism-based; parameters: dose 10 mg/kg, route oral, time infinity; settings: in vivo
[3] = Tmax in CD rat at 10 mg/kg, po by LC-MS/MS analysis; format: ADME, organism-based; settings: in vivo
[4] = animal or person; settings: Homo sapiens, KARPAS-299, po, 312 h, read-out: TGI
Description: Antitumor activity against human KARPAS299 cells expressing NMP-ALK fusion protein xenografted in SCID/beige mouse assessed as tumor growth inhibition at 50 mg/kg, po administered once daily for 13 days relative to untreated control

[5] = test system: KARPAS-299; assay: Antitumor activity against human KARPAS299 cells expressing […] fusion protein xenografted in SCID/beige mouse assessed as tumor stasis at 50 mg/kg, po administered once daily for 13 days; format: functional, organism-based
[6] = animal or person; settings: Homo sapiens, KARPAS-299, po, 312 h, read-out: TGI; remark: listed apart in the source
Description: Antitumor activity against human KARPAS299 cells expressing NMP-ALK fusion protein xenografted in SCID/beige mouse assessed as tumor growth inhibition at 10 mg/kg, po administered once daily for 13 days relative to untreated control

[7] = (§1) Volume of distribution at steady state in CD rat at 3 mg/kg, iv by LC-MS/MS analysis; format: ADME, organism-based; settings: CD, in vivo, read-out: Vdss
[8] = Cmax in mouse at 10 mg/kg, po by LC-MS/MS analysis; format: ADME, organism-based; parameters: dose 10 mg/kg, route oral; settings: in vivo
[9] = (§2) Half life in CD rat at 3 mg/kg, iv by LC-MS/MS analysis; format: ADME, organism-based; settings: CD, in vivo
[10] = test system: Mus musculus; assay: Toxicity in SCID/beige mouse xenografted with human KARPAS299 cells expressing […] fusion protein at 50 mg/kg, po administered once daily for 13 days; format: organism-based, KARPAS-299; settings: in vivo, 312 h
[11] = Clearance in CD rat at 3 mg/kg, iv by LC-MS/MS analysis; format: ADME, organism-based; settings: in vivo
[12] = (§3) AUC (0 to infinity) in CD rat at 3 mg/kg, iv by LC-MS/MS analysis; format: ADME, organism-based; parameters: dose 3 mg/kg, time infinity, route intravenous; settings: CD, in vivo
[13] = Half life in mouse at 10 mg/kg, po by LC-MS/MS analysis; format: ADME, organism-based; settings: in vivo
[14] = cells; settings: Homo sapiens, U-937, 72 h
Description: Antiproliferative activity against human ALK-negative U937 cells assessed as reduction in cell viability measured after 72 hrs by CellTiter 96 aqueous one solution cell proliferation assay

[15] = target: T1, ALK tyrosine kinase receptor (Homo sapiens, UniProt Q9UM73); assay: Inhibition of ALK phosphorylation in mouse xenografted with human KARPAS299 cells assessed as p-ALK level at 25 mg/kg, po administered as single dose measured after 16 hrs relative to 2 hrs vehicle-treated tumor; format: organism-based; parameters: scale not given: the % may be the effect or the level left; settings: KARPAS-299
Target sequence in this assay (Q9UM73 19-1620 limits assumed): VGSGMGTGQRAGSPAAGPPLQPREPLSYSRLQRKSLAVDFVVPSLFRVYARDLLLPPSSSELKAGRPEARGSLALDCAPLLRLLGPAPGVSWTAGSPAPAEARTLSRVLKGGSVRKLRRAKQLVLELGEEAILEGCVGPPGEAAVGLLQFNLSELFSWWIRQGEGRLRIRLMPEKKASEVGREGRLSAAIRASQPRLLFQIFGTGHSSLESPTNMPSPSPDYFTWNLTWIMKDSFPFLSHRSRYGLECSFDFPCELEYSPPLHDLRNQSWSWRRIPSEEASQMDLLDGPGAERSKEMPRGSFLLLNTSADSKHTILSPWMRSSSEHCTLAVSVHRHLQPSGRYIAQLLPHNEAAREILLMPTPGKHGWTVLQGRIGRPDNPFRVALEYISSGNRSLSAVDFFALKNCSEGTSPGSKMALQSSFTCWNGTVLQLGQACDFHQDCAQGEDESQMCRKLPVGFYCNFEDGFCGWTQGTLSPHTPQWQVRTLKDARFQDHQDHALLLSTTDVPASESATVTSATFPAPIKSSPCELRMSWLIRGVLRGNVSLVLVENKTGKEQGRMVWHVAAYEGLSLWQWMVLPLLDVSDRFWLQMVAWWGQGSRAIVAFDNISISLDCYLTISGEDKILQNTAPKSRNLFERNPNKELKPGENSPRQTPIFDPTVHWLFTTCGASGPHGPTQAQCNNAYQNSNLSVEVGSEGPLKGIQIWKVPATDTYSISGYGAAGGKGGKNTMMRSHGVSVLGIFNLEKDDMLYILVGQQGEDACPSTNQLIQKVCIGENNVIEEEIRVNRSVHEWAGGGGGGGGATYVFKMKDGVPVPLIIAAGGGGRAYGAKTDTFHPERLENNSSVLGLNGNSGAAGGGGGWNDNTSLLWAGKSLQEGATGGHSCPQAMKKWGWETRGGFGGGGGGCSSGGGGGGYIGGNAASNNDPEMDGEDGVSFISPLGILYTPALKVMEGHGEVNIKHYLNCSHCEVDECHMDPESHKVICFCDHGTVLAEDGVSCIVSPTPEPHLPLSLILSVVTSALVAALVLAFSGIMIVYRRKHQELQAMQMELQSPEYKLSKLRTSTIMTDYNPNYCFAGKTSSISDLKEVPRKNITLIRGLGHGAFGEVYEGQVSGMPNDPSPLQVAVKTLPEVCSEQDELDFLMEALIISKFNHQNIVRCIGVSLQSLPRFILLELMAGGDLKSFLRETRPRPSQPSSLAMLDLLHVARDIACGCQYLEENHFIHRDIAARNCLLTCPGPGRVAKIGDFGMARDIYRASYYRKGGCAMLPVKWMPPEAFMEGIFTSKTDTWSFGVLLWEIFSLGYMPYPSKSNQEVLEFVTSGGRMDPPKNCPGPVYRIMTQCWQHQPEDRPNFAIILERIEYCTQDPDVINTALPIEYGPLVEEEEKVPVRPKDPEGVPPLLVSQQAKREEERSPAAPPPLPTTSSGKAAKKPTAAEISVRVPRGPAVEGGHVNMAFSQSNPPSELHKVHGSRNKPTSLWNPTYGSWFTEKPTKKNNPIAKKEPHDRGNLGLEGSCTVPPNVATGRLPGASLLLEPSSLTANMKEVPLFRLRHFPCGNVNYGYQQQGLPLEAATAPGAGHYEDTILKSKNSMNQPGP

[16] = target: Insulin-like growth factor 1 receptor (Homo sapiens, UniProt P08069)
[17] = Half life in CD rat at 10 mg/kg, po by LC-MS/MS analysis; format: ADME, organism-based; settings: in vivo
[18] = animal or person; settings: Homo sapiens, KARPAS-299, po, 312 h, read-out: TGI; remark: listed apart in the source
Description: Antitumor activity against human KARPAS299 cells expressing NMP-ALK fusion protein xenografted in SCID/beige mouse assessed as tumor growth inhibition at 25 mg/kg, po administered once daily for 13 days relative to untreated control

[19] = target: T1, ALK tyrosine kinase receptor; assay: Inhibition of ALK phosphorylation in mouse xenografted with human KARPAS299 cells assessed as p-ALK level at 25 mg/kg, po administered as single dose measured after 10 hrs relative to 2 hrs vehicle-treated tumor; format: organism-based; parameters: scale not given: the % may be the effect or the level left; settings: KARPAS-299
Target sequence in this assay (Q9UM73 19-1620 limits assumed): as above

[20] = target: T1, ALK tyrosine kinase receptor
Description: Inhibition of human ALK using poly[Glu:Tyr] (4:1) as substrate and [gamma-33P]ATP measured after 1 hr

[21] = cells; settings: Homo sapiens, KARPAS-299, 72 h
Description: Antiproliferative activity against human ALK-positive KARPAS299 cells assessed as reduction in cell viability measured after 72 hrs by CellTiter 96 aqueous one solution cell proliferation assay

[22] = AUC (0 to 24 hrs) in mouse at 10 mg/kg, po by LC-MS/MS analysis; format: ADME, organism-based; parameters: time < 24 hr, dose 10 mg/kg, route oral; settings: in vivo
[23] = target: Insulin receptor (Homo sapiens, UniProt P06213)
Description: Inhibition of human InsR using myelin basic protein as substrate and [gamma-33P]ATP measured after 1 hr

[24] = target: T1, ALK tyrosine kinase receptor; assay: Inhibition of ALK phosphorylation in mouse xenografted with human KARPAS299 cells assessed as p-ALK level at 25 mg/kg, po administered as single dose measured after 24 hrs relative to 2 hrs vehicle-treated tumor; format: organism-based; parameters: scale not given: the % may be the effect or the level left; settings: KARPAS-299
Target sequence in this assay (Q9UM73 19-1620 limits assumed): as above

[25] = Oral bioavailability in CD rat at 10 mg/kg by LC-MS/MS analysis; format: ADME, organism-based; settings: in vivo
[26] = test system: KARPAS-299; assay: Antitumor activity against human KARPAS299 cells xenografted in SCID/beige mouse assessed as tumor growth inhibition administered orally once daily for 13 days relative to untreated control; format: functional, cell-based
[27] = Protein binding in mouse plasma; format: ADME, cell-free; settings: read-out: PPB (converted)
[28] = species on record: Homo sapiens; assay: Inhibition of human EML4/ALK F1174C/V mutant
[29] = Lipophilicity, logD of the compound at pH 7; format: physicochemical; settings: buffer
[30] = Aqueous solubility of the compound at physiological pH; format: physicochemical; settings: buffer
[31] = species on record: Homo sapiens; assay: Inhibition of human EML4/ALK […] mutant
[32] = Protein binding in human plasma; format: ADME, cell-free; settings: read-out: PPB (converted)
[33] = test system: Rattus norvegicus; assay: as §1; format: ADME, organism-based; settings: in vivo
[34] = test system: Rattus norvegicus; assay: as §2; format: ADME, organism-based; settings: in vivo
[35] = test system: Mus musculus; assay: Toxicity in SCID/beige mouse xenografted with human NCI-H3122 cells assessed as body weight loss at 10 to 50 mg/kg, po administered once daily for 19 days relative to vehicle-treated control; format: organism-based; settings: in vivo, 456 h
[36] = test system: Rattus norvegicus; assay: as §3; format: ADME, organism-based; parameters: dose 3 mg/kg, time infinity, route intravenous; settings: in vivo
[37] = test system: NCI-H3122; assay: Antitumor activity against human NCI-H3122 cells expressing EML4-ALK fusion protein xenografted in SCID/beige mouse assessed as tumor regression compound administered as once-daily oral dose for 19 days; format: functional, cell-based
[38] = target: Macrophage-stimulating protein receptor (Homo sapiens) (UniProt Q04912); assay: Inhibition of human Ron using KKSRGDYMTMQIG as substrate and [gamma-33P]ATP measured up to 1 uM after 1 hr
[39] = test system: KARPAS-299; assay: Antitumor activity against human KARPAS299 cells expressing […] fusion protein xenografted in SCID/beige mouse assessed as tumor regression at 50 mg/kg, po administered once daily for 13 days; format: functional, organism-based
[40] = Protein binding in rat plasma; format: ADME, cell-free; settings: read-out: PPB (converted)
[41] = species on record: Homo sapiens; assay: Inhibition of human EML4/ALK I1171N mutant
[42] = target: Hepatocyte growth factor receptor (Homo sapiens) (UniProt P08581); assay: Inhibition of human c-Met using [KKKSPGEYVNIEFG as substrate and [gamma-33P]ATP up to 1 uM measured after 1 hr

Chain of Insulin-like growth factor 1 receptor (P08069 31-736 limits assumed): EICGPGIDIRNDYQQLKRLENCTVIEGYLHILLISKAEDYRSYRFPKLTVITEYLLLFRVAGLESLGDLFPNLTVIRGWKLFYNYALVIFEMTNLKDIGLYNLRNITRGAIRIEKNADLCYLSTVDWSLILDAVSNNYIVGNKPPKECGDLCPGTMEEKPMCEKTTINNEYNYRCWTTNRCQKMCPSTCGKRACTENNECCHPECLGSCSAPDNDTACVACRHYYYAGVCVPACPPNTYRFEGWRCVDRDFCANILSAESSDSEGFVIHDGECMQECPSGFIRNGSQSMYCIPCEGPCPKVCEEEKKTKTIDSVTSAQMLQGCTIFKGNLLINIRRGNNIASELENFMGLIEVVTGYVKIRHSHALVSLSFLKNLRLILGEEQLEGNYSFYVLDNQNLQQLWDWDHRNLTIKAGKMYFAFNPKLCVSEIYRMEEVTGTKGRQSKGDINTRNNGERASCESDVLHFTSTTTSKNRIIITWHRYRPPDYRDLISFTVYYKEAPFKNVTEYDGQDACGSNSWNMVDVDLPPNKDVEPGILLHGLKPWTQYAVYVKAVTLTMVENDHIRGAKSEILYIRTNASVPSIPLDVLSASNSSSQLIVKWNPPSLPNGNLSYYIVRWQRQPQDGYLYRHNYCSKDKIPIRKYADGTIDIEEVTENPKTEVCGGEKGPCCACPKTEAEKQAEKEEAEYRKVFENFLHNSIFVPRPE
Chain of Insulin-like growth factor 1 receptor (P08069 741-1367 limits assumed): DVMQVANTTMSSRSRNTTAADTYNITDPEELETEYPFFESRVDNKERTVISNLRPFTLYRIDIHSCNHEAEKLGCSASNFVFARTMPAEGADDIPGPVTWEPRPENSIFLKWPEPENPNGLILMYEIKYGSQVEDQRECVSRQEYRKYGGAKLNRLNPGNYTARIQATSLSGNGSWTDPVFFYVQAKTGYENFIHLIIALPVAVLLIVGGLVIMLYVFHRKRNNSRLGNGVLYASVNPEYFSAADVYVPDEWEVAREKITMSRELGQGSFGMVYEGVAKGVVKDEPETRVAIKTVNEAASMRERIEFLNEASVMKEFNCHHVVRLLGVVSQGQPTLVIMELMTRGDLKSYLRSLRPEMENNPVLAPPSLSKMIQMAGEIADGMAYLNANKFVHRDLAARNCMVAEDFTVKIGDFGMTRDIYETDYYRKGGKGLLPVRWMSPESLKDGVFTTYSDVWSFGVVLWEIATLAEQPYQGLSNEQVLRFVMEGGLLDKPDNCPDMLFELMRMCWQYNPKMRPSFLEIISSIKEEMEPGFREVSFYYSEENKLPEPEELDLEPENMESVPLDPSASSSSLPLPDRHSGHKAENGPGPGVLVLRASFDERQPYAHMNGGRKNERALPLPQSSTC
Chain of Insulin receptor (P06213 28-758 limits assumed): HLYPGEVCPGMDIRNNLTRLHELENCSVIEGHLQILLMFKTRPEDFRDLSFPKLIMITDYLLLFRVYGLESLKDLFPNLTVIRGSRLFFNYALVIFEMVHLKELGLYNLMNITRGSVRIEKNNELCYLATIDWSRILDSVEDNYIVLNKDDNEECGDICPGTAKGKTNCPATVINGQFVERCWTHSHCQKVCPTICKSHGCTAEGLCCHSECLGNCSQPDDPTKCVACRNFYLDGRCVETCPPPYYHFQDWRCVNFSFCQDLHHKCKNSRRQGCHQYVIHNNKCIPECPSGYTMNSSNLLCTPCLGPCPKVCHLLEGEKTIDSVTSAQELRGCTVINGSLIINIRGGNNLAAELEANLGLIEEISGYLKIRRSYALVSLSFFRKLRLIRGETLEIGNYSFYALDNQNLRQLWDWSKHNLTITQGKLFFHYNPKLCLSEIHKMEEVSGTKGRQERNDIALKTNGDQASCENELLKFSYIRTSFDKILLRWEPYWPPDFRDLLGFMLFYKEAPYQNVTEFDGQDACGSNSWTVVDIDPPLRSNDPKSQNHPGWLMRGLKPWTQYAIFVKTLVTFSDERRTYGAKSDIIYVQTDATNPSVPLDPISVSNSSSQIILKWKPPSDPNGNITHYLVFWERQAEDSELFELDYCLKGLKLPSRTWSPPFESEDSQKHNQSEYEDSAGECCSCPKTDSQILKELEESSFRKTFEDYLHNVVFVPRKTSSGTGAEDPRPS
Chain of Insulin receptor (P06213 763-1382 limits assumed): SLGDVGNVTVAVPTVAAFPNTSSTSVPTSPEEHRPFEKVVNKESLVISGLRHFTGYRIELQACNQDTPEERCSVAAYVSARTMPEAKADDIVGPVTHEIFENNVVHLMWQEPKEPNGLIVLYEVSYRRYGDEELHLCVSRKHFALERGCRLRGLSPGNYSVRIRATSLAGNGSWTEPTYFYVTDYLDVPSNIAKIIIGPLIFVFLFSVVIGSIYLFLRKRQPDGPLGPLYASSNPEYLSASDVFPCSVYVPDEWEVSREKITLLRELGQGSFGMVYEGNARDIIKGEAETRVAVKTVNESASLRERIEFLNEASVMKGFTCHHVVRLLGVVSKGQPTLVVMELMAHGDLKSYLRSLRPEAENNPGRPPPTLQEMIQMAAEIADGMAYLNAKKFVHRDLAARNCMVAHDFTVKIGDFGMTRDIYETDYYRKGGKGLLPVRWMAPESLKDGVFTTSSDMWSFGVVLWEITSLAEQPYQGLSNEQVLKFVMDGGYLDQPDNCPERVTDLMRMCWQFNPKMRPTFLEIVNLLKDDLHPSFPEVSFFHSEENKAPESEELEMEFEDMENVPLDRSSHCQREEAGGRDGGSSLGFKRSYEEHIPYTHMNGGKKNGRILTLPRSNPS

SMILES	Cmax [1] [ng/mL]	AUC(0-inf) [2] [ng·h/mL]	Tmax [3] [h]	inhibition in vivo at 50 mg/kg [4] [%]	inhibition in vivo at 10 mg/kg [6] [%]	Cmax [8] [ng/mL]	Activity [10]	half-life [13] [h]	IC50 [14] [nM]	Activity [15] [%]	IC50 [16] [nM]	half-life [17] [h]	inhibition in vivo at 25 mg/kg [18] [%]	Activity [19] [%]	IC50 [21] [nM]	AUC(0-t) at 24 h [22] [ng·h/mL]	IC50 [23] [nM]	Activity [24] [%]	bioavailability [25] [%]	TGI [26]	other results
COc1cc(N2CCN(C)CC2)ccc1Nc1ncc(Cl)c(Nc2ccccc2P(C)(C)=O)n1	254	4060	6	1.4	81	418	Non-toxic	2.7	1590	14	20.3	12.5	41	2	28.3	5180	90.6	94	39	Dose-dependent effect	Activity [5]: Active; Vd [7]: 6.12 L/kg; half-life [9]: 6.6 h; clearance [11]: 15.2 mL/min/kg; AUC(0-inf) [12]: 3090 ng·h/mL; IC50 [20]: 0.18 nM
COc1cc(N2CCC(N3CCN(C)CC3)CC2)ccc1Nc1ncc(Cl)c(Nc2ccccc2P(C)(C)=O)n1 [BRIGATINIB]	305	3950	4	-11	50	448	Non-toxic	5.8	3190	7	24.9	3.4	12	1	29	5770	196	39	52	Dose-dependent effect	fraction unbound [27]: 0.36; inhibition [28]: Active; logD [29]: 3.02; solubility [30]: 337 µg/mL (≈ 577 µM); inhibition [31]: Active; fraction unbound [32]: 0.34; Vdss [33]: 7.8 L/kg; t1/2 [34]: 4.8 h; Activity [35]: Non-toxic; AUC [36]: 2268 ng·h/mL; Activity [37]: Dose-dependent effect; inhibition [38]: inactive; GI50 [21]: 10 nM; Activity [39]: Active; fraction unbound [40]: 0.27; inhibition [41]: Active; inhibition [42]: inactive

Reference: ChEMBL document CHEMBL3822358 (J Med Chem, 2016)
